US20130324615A1, “BIODEGREDATION SUPPRESSION SOLUTION FOR FORENSIC SAMPLES” (Indiana University Research and Technology Corporation, priority 2011, published 2013)

Key:
Type in all cases: cell-based
[1] = test system: bacteria grown from soil sample extract; assay: Anti-microbial agent screening: soil-extract broth cultures treated with agent, then sub-cultured; conditions: confirmation on TSA plates
Method: In anti-microbial agent screening studies, a soil sample was extracted with a 0.9% saline solution of sodium chloride (NaCl) and water (H2O) and a sample loop was used to transfer approximately 10 μL of extract to a test tube containing sterile Tryptic Soy Broth (TSB). […] The broth samples were then treated with anti-microbial agents at a known concentration. The treated broth samples were then sub-cultured in another sterile TSB, minimal media (MM) or spread on sterile Tryptic Soy Agar (TSA) plates. MM is a nutrient deficient growth medium where citric acid is the only carbon source and which is selective against many species of bacteria. Bacterial growth was confirmed by visible inspection of the secondary TSB, MM or TSA plate. The broth/plate samples were then evaluated for how long they remained free of bacterial growth. […] The column labeled Bacterial Confirmatory Analysis provides the subculture media used to confirm bacterial growth.

[2] = test system: bacteria of soil sample; assay: Culturing study: soil sample directly treated with anti-microbial agent, extract inoculated into sterile TSB; conditions: concentration not given
Method: Additional culturing studies were carried out where a soil sample was directly treated with an anti-microbial agent. The exposure time of the soil sample to the anti-microbial was either 60 seconds or 24 hours. The extract was then sampled and used to inoculate a sterile TSB. The amount of time for bacterial growth to become visible was then noted.

[3] = test system: bacteria from saline extract of a soil sample; assay: Growth curve by UV-Vis absorbance at 600 nm of TSB inoculated with saline soil extract; conditions: TSB treated with 1.8% triclosan in 0.1 M NaOH or with bleach; room temperature, up to 80 days
Method: FIG. 1 describes a growth curve constructed using UV-vis analysis of cultures taken from soil exposed to water, 0.1 M sodium hydroxide (NaOH), 1.81% triclosan and bleach.
A final culturing study was conducted where a set of culture tubes containing sterile TSB were inoculated with a saline extract of a soil sample. One set of culture tubes contained only sterile TSB, a second set contained sterile TSB treated with 0.1 M NaOH, a third set contained sterile TSB treated with 1.8% triclosan in 0.1 M NaOH and a fourth set contained sterile TSB treated with bleach. The culture tubes were allowed to stand at room temperature for periods of up to 80 days. Growth was then monitored three times daily for up to 4 days by a single beam diode array UV-Vis Spectrophotometer in the 400 nm to 800 nm range. The absorbance of the samples at 600 nm was monitored over the course of the study.

CC(C)(C)CC(C)(C)c1ccc(OCCOCC[N+](C)(C)Cc2ccccc2)cc1 [Benzethonium chloride in water, Benzethonium chloride]
Effective Period (time sub-culture remained free of bacterial growth) ([1]; agent at 1%): 0 days

[H]/N=C(\N/C(=N/[H])NCCCCCCNC(=N)NC(=N)Nc1ccc(Cl)cc1)Nc1ccc(Cl)cc1 [Chlorhexidine in water, Chlorhexidine]
Effective Period (time sub-culture remained free of bacterial growth) ([1]; agent at 14%): 0 days
Effective period (time for bacterial growth to become visible, cloudy) ([2]; soil exposure time 60 s): Cloudy after 8 days
Effective period (time for bacterial growth to become visible, cloudy) ([2]; soil exposure time 24 hrs): Still clean after 36 days

O=S(=O)([O-])[O-].[Cu+2] [Copper Sulfate in water, Copper Sulfate]
Effective Period (time sub-culture remained free of bacterial growth) ([1]; agent at 5%): 0 days

Oc1cc(Cl)ccc1Oc1ccc(Cl)cc1Cl [triclosan, 2,4,4′-trichloro-2′-hydroxydiphenyl ether]
Bacterial growth by sample absorbance at 600 nm (FIG. 1) [3]: prevent bacterial growth

Benzalkonium chloride [Benzalkonium chloride in water]
Effective Period (time sub-culture remained free of bacterial growth) ([1]; agent at 1%): 0 days
